Laboratory results taken from PubChem BioAssay (NCI).
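Method: 48-hour compound exposure of cells in 96-well plates, five concentrations, linear interpolation of endpoints. At the GI50, growth is halved. TGI denotes the concentration required for complete inhibition of growth.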

Assays:
Assay in all cases: inhibition of tumour cell growth, NCI panel, 48 h
SK-MEL-5 melanoma = tested on: SK-MEL-5 melanoma
SN12C renal = tested on: SN12C renal
T-47D breast = tested on: T-47D breast
A549 NSCLC = tested on: A549 NSCLC
MDA-MB-468 breast = tested on: MDA-MB-468 breast
CAKI-1 renal = tested on: CAKI-1 renal
SK-MEL-28 melanoma = tested on: SK-MEL-28 melanoma
SK-MEL-2 melanoma = tested on: SK-MEL-2 melanoma
EKVX NSCLC = tested on: EKVX NSCLC
HOP-92 NSCLC = tested on: HOP-92 NSCLC
TK-10 renal = tested on: TK-10 renal
HCT-15 colon = tested on: HCT-15 colon
MCF7 breast = tested on: MCF7 breast
K-562 leukemia = tested on: K-562 leukemia
BT-549 breast = tested on: BT-549 breast
UACC-62 melanoma = tested on: UACC-62 melanoma
LOX IMVI melanoma = tested on: LOX IMVI melanoma
NCI-H226 lung = tested on: NCI-H226 lung
HS 578T breast = tested on: HS 578T breast
NCI/ADR-RES ovarian = tested on: NCI/ADR-RES ovarian
SNB-75 CNS = tested on: SNB-75 CNS
MALME-3M melanoma = tested on: MALME-3M melanoma
M14 melanoma = tested on: M14 melanoma
NCI-H522 lung = tested on: NCI-H522 lung
OVCAR-5 ovarian = tested on: OVCAR-5 ovarian
DU-145 prostate = tested on: DU-145 prostate
OVCAR-8 ovarian = tested on: OVCAR-8 ovarian
HT29 colon = tested on: HT29 colon
OVCAR-3 ovarian = tested on: OVCAR-3 ovarian
MOLT-4 leukemia = tested on: MOLT-4 leukemia

## O=C1NC(=NC23CC4CC(CC(C4)C2)C3)N/C1=C\c1ccc2ncccc2n1
SK-MEL-5 melanoma
  GI50: 425 nM
  TGI: 1850 nM
SN12C renal
  GI50: 350 nM
  TGI: 4570 nM
T-47D breast
  GI50: 238 nM
  TGI: 5380 nM
A549 NSCLC
  GI50: 398 nM
  TGI: 5120 nM
MDA-MB-468 breast
  GI50: 201 nM
  TGI: 781 nM
CAKI-1 renal
  GI50: 234 nM
  TGI: 1200 nM
SK-MEL-28 melanoma
  GI50: 453 nM
  TGI: 2910 nM
SK-MEL-2 melanoma
  GI50: 202 nM
  TGI: 545 nM
EKVX NSCLC
  GI50: 321 nM
  TGI: 2810 nM
HOP-92 NSCLC
  GI50: 222 nM
  TGI: 1760 nM
TK-10 renal
  GI50: 328 nM
  TGI: 6570 nM
HCT-15 colon
  GI50: 389 nM
  TGI: 6880 nM
MCF7 breast
  GI50: 367 nM
  TGI: 5840 nM
K-562 leukemia
  GI50: 546 nM
  TGI: > 33600 nM
BT-549 breast
  GI50: 163 nM
  TGI: 687 nM
UACC-62 melanoma
  GI50: 226 nM
  TGI: 739 nM
LOX IMVI melanoma
  GI50: 416 nM
  TGI: 4780 nM
NCI-H226 lung
  GI50: 597 nM
  TGI: 5970 nM
HS 578T breast
  GI50: 222 nM
  TGI: 1230 nM
NCI/ADR-RES ovarian
  GI50: 1820 nM
  TGI: 7000 nM
SNB-75 CNS
  GI50: 91.3 nM
  TGI: 755 nM
MALME-3M melanoma
  GI50: 147 nM
  TGI: 897 nM
M14 melanoma
  GI50: 352 nM
  TGI: 2930 nM
NCI-H522 lung
  GI50: 194 nM
  TGI: 1130 nM
OVCAR-5 ovarian
  GI50: 743 nM
  TGI: 5430 nM
DU-145 prostate
  GI50: 462 nM
  TGI: 7590 nM
OVCAR-8 ovarian
  GI50: 632 nM
  TGI: 5730 nM
HT29 colon
  GI50: 833 nM
  TGI: 3680 nM
OVCAR-3 ovarian
  GI50: 279 nM
  TGI: 1590 nM
MOLT-4 leukemia
  GI50: 338 nM
